Laboratory results: PubChem BioAssay (NCI)
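Method: 48-hour compound exposure of cells in 96-well plates, five concentrations, linear interpolation of endpoints. Definition used: TGI = concentration required for complete inhibition of growth.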

How the values were obtained:
Assay in all cases: NCI tumour cell line growth inhibition, 48 h
A549 NSCLC = system: A549 NSCLC
SK-OV-3 ovarian = system: SK-OV-3 ovarian
OVCAR-5 ovarian = system: OVCAR-5 ovarian
EKVX NSCLC = system: EKVX NSCLC
LOX IMVI melanoma = system: LOX IMVI melanoma
NCI/ADR-RES ovarian = system: NCI/ADR-RES ovarian
CAKI-1 renal = system: CAKI-1 renal
SNB-75 CNS = system: SNB-75 CNS
RPMI-8226 leukemia = system: RPMI-8226 leukemia
DU-145 prostate = system: DU-145 prostate
ACHN renal = system: ACHN renal
HT29 colon = system: HT29 colon

For O=C(N/N=C/c1ccc([N+](=O)[O-])cc1)Nc1ccc(C(=O)O)cc1, the TGI (A549 NSCLC) was > 100 µM, the TGI (SK-OV-3 ovarian) was 70.8 µM and the TGI (OVCAR-5 ovarian) was > 100 µM. The TGI (EKVX NSCLC) was 77 µM, the TGI (LOX IMVI melanoma) was > 100 µM and the TGI (NCI/ADR-RES ovarian) was > 100 µM. The TGI (CAKI-1 renal) was > 100 µM, the TGI (SNB-75 CNS) was > 100 µM and the TGI (RPMI-8226 leukemia) was > 100 µM. For the same compound, the TGI (DU-145 prostate) was > 100 µM, the TGI (ACHN renal) was 99.4 µM and the TGI (HT29 colon) was > 100 µM.

With O=C1Cc2c([nH]c3ccc(Br)cc23)-c2cc(O)c(O)cc2N1 the TGI (A549 NSCLC) was > 100 µM, the TGI (SK-OV-3 ovarian) was > 100 µM and the TGI (OVCAR-5 ovarian) was > 100 µM. The TGI (EKVX NSCLC) was > 100 µM, the TGI (LOX IMVI melanoma) was > 100 µM and the TGI (NCI/ADR-RES ovarian) was > 100 µM. The TGI (CAKI-1 renal) was > 100 µM, the TGI (SNB-75 CNS) was > 100 µM and the TGI (RPMI-8226 leukemia) was > 100 µM. The TGI (DU-145 prostate) was > 100 µM and the TGI (ACHN renal) was > 100 µM.

With c1ccc2oc(-c3ccc(-c4nc5ccccc5o4)c4c3CC4)nc2c1 the TGI (A549 NSCLC) was > 100 µM, the TGI (SK-OV-3 ovarian) was > 100 µM and the TGI (OVCAR-5 ovarian) was > 100 µM. The TGI (EKVX NSCLC) was > 100 µM, the TGI (LOX IMVI melanoma) was > 100 µM and the TGI (NCI/ADR-RES ovarian) was > 100 µM. The TGI (CAKI-1 renal) was > 100 µM, the TGI (SNB-75 CNS) was > 100 µM and the TGI (RPMI-8226 leukemia) was > 100 µM. For the same compound, the TGI (DU-145 prostate) was > 100 µM, the TGI (ACHN renal) was > 100 µM and the TGI (HT29 colon) was > 100 µM.

For c1cnc2c(c1)ccc1cccnc12, the TGI (A549 NSCLC) was > 100 µM, the TGI (SK-OV-3 ovarian) was > 100 µM and the TGI (OVCAR-5 ovarian) was > 100 µM. For the same compound, the TGI (EKVX NSCLC) was > 78.6 µM, the TGI (LOX IMVI melanoma) was > 100 µM and the TGI (NCI/ADR-RES ovarian) was > 74.7 µM. For the same compound, the TGI (CAKI-1 renal) was 27.3 µM, the TGI (SNB-75 CNS) was > 39.7 µM and the TGI (RPMI-8226 leukemia) was 7.89 µM. The TGI (DU-145 prostate) was > 100 µM, the TGI (ACHN renal) was > 100 µM and the TGI (HT29 colon) was > 100 µM.

For Fc1ccc(N2C(=S)SC(=Nc3ccccc3)C2=Nc2ccccc2)cc1, the TGI (A549 NSCLC) was > 100 µM, the TGI (SK-OV-3 ovarian) was > 100 µM and the TGI (OVCAR-5 ovarian) was > 100 µM. For the same compound, the TGI (EKVX NSCLC) was > 100 µM, the TGI (LOX IMVI melanoma) was > 100 µM and the TGI (NCI/ADR-RES ovarian) was > 100 µM. For the same compound, the TGI (CAKI-1 renal) was > 100 µM, the TGI (SNB-75 CNS) was > 100 µM and the TGI (RPMI-8226 leukemia) was > 100 µM. The TGI (DU-145 prostate) was > 100 µM, the TGI (ACHN renal) was > 100 µM and the TGI (HT29 colon) was > 100 µM.

In the case of O=C(c1ccccc1)N(C(=O)c1ccccc1)c1nc(SCc2ccccc2)ns1, the TGI (A549 NSCLC) is reported as > 100 µM, the TGI (SK-OV-3 ovarian) is reported as > 100 µM and the TGI (OVCAR-5 ovarian) is reported as 86.8 µM. It also gave a TGI (EKVX NSCLC) of 68.7 µM, a TGI (LOX IMVI melanoma) of 60.4 µM and a TGI (NCI/ADR-RES ovarian) of 78.7 µM. The TGI (CAKI-1 renal) was > 100 µM, the TGI (SNB-75 CNS) was 58.1 µM and the TGI (RPMI-8226 leukemia) was 56.6 µM. For the same compound, the TGI (DU-145 prostate) was > 100 µM, the TGI (ACHN renal) was > 100 µM and the TGI (HT29 colon) was 84.8 µM.

For CC1(C)OC(=S)N(c2ccccc2)C12C=Cc1ccccc1O2 (stereo not drawn), the TGI (A549 NSCLC) was > 100 µM, the TGI (SK-OV-3 ovarian) was 73 µM and the TGI (OVCAR-5 ovarian) was > 100 µM. For the same compound, the TGI (EKVX NSCLC) was > 100 µM, the TGI (LOX IMVI melanoma) was > 100 µM and the TGI (NCI/ADR-RES ovarian) was > 100 µM. For the same compound, the TGI (CAKI-1 renal) was > 100 µM, the TGI (SNB-75 CNS) was > 100 µM and the TGI (RPMI-8226 leukemia) was > 100 µM. For the same compound, the TGI (DU-145 prostate) was > 100 µM, the TGI (ACHN renal) was > 100 µM and the TGI (HT29 colon) was > 100 µM.
